From paper PMC8126811, “Clinical translation of choline and geranic acid deep eutectic solvent” (Bioengineering & Translational Medicine, 2020)

Key:
[1] = octanol-water partition coefficient; no reference given; cited from earlier work
[2] = Human cadaver skin permeation evaluation (static Franz cells); format: in vitro ADME
Protocol: Dermatomed full thickness human cadaver skin samples, 250–350 μm, were mounted onto static Franz cells. […] Phosphate buffered saline, pH 7.4 was used as the receptor medium. CGB400 gel was applied to the SC side of the skin samples at a dose of ~15 μl/cm^2 (~15 mg/cm^2). The cells were kept in a chamber at 37°C for a period of 24 h. Stirrers in the receptor chamber ensured that the receptor media was well mixed during this time. The receptor media was sampled at 4, 7, and 24 h to quantify the amount of choline and geranic acid permeation. After 24 h, the skin surface was washed before removing the SC by tape stripping. The SC was stripped from the epidermis using an adhesive tape up to 10 layers (SC1, SC2‐5, SC6‐10). Following SC removal, the epidermis was separated from the dermis using a surgical sterile scalpel and the dermis was cut into pieces. Each layer was collected separately in glass vials containing 2 ml of 50:50 water:methanol mixture and was left to shake overnight to extract the choline and geranic acid. The amount of choline and geranic acid was measured using LC–MS/MS in the wash, epidermis, dermis, and the receptor medium.

C[N+](C)(C)CCO [choline]
LogP [1]: −3.7

CC(C)=CCC/C(C)=C/C(=O)O [geranic acid]
LogP [1]: 2.8

Choline geranate [CAGE1:2]
applied CAGE1:2 dose penetrated into the dermis [2]: About 9.5% | molar ratio of choline to geranic acid in the epidermis [2]: 1.18
